According to PubChem BioAssay AID248 (DTP/NCI, 2004):
Values joined by “and” are separate entries in the source; they are usually repeats but may differ in a detail not shown here. Equal values may be shown once. Toxic doses and inconclusive results are not listed. Rule as the data show it: active = T/C of 150% or more; inactive = T/C below 125%.

Tested on: L1210 leukemia ip in BDF1 mice, survival T/C
Assay: NCI In Vivo Anticancer Drug Screen. Data for tumor model L1210 Leukemia (intraperitoneal) in B6D2F1 (BDF1) mice
Conditions: endpoint: mean survival time, higher = longer survival
Outline: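 Transplantable tumor model; survival measured in treated vs vehicle control mice. Value = treated/control.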

[1] = dose: 50.0 mg/kg/injection, schedule: Q01DX009 (ip), vehicle: saline with Tween-80
[2] = dose: 100.0 mg/kg/injection, schedule: Q01DX009 (ip), vehicle: saline with Tween-80
[3] = dose: 100.0 mg/kg/injection, schedule: Q01DX001 (ip), vehicle: saline
[4] = dose: 50.0 mg/kg/injection, schedule: Q01DX001 (ip), vehicle: Klucel (hydroxypropylcellulose) (HPC)
[5] = dose: 200.0 mg/kg/injection, schedule: Q01DX001 (ip), vehicle: Klucel (hydroxypropylcellulose) (HPC)
[6] = dose: 100.0 mg/kg/injection, schedule: Q04DX002 (ip), vehicle: saline
[7] = dose: 100.0 mg/kg/injection, schedule: Q01DX001 (ip), vehicle: Klucel (hydroxypropylcellulose) (HPC)
[8] = dose: 100.0 mg/kg/injection, schedule: Q01DX009 (ip), vehicle: saline
[9] = dose: 100.0 mg/kg/injection, schedule: Q04DX003 (ip), vehicle: saline
[10] = dose: 200.0 mg/kg/injection, schedule: Q01DX009 (ip), vehicle: saline
[11] = dose: 200.0 mg/kg/injection, schedule: Q04DX003 (ip), vehicle: saline
[12] = dose: 400.0 mg/kg/injection, schedule: Q01DX009 (ip), vehicle: saline
[13] = dose: 400.0 mg/kg/injection, schedule: Q04DX003 (ip), vehicle: saline
[14] = dose: 100.0 mg/kg/injection, schedule: Q04DX003 (ip), vehicle: saline with Tween-80
[15] = dose: 200.0 mg/kg/injection, schedule: Q04DX003 (ip), vehicle: saline with Tween-80
[16] = dose: 400.0 mg/kg/injection, schedule: Q04DX003 (ip), vehicle: saline with Tween-80
[17] = dose: 200.0 mg/kg/injection, schedule: Q01DX001 (ip), vehicle: saline

Measured: T/C

CCOc1ccc(Nc2c3ccccc3nc3ccccc23)cc1
inactive: dose: 12.5 mg/kg/injection, schedule: Q01DX009 (ip), vehicle: saline with Tween-80 102 % of control | dose: 20.0 mg/kg/injection, schedule: Q01DX009 (ip), vehicle: saline with Tween-80 108 % of control | dose: 25.0 mg/kg/injection, schedule: Q01DX009 (ip), vehicle: saline with Tween-80 123 % of control | dose: 30.0 mg/kg/injection, schedule: Q01DX009 (ip), vehicle: saline with Tween-80 110 % of control | dose: 44.0 mg/kg/injection, schedule: Q01DX009 (ip), vehicle: saline with Tween-80 105 % of control | [1] 123 % of control | dose: 66.0 mg/kg/injection, schedule: Q01DX009 (ip), vehicle: saline with Tween-80 111 % of control and 123 % of control | [2] 94 % of control

CC(=O)OC(C)(C)/C=C/C(=O)[C@](C)(O)[C@H]1[C@H](O)C[C@@]2(C)[C@@H]3CC=C4[C@@H](C=C(O)C(=O)C4(C)C)[C@]3(C)C(=O)C[C@]12C
inactive: dose: 0.4 mg/kg/injection, schedule: Q01DX Z (ip), vehicle: carboxymethylcellulose (CMC) 94 % of control | dose: 0.8 mg/kg/injection, schedule: Q01DX Z (ip), vehicle: carboxymethylcellulose (CMC) 100 % of control | dose: 1.6 mg/kg/injection, schedule: Q01DX Z (ip), vehicle: carboxymethylcellulose (CMC) 105 % of control | dose: 3.2 mg/kg/injection, schedule: Q01DX Z (ip), vehicle: carboxymethylcellulose (CMC) 100 % of control

O=C1C(Cl)=C(NCCCCCCNC2=C(Cl)C(=O)c3ccccc3C2=O)C(=O)c2ccccc21
inactive: [3] 106 % of control

Cc1nc(N)[nH]c(=O)c1CCCNC(=O)c1ccc(C(=O)CBr)cc1
inactive: [4] 90 % of control | [5] 93 % of control

Cc1nccn1-c1ccccc1N=Cc1ccc(N(CCCl)CCCl)cc1Cl
inactive: [6] 102 % of control | dose: 200.0 mg/kg/injection, schedule: Q04DX002 (ip), vehicle: saline 102 % of control | dose: 400.0 mg/kg/injection, schedule: Q04DX002 (ip), vehicle: saline 98 % of control

Clc1nc2ncn3cnnc3c2[nH]1
inactive: [7] 108 % of control | [5] 98 % of control | dose: 400.0 mg/kg/injection, schedule: Q01DX001 (ip), vehicle: Klucel (hydroxypropylcellulose) (HPC) 93 % of control

NC(=O)C1=C(CCCCl)c2ccccc2C1=O
inactive: [1] 100 % of control

NCC1OC(n2cnc3c(N)ncnc32)C(O)C1O (stereo unspecified)
inactive: dose: 50.0 mg/kg/injection, schedule: Q01DX001 (ip), vehicle: carboxymethylcellulose (CMC) 98 % of control | dose: 100.0 mg/kg/injection, schedule: Q01DX001 (ip), vehicle: carboxymethylcellulose (CMC) 102 % of control | dose: 200.0 mg/kg/injection, schedule: Q01DX001 (ip), vehicle: carboxymethylcellulose (CMC) 107 % of control | dose: 400.0 mg/kg/injection, schedule: Q01DX001 (ip), vehicle: carboxymethylcellulose (CMC) 109 % of control

O=S(=O)(Oc1cccc(C(F)(F)F)c1)c1cccc(C(F)(F)F)c1
inactive: dose: 6.25 mg/kg/injection, schedule: Q01DX009 (ip), vehicle: saline sonified 101 % of control | dose: 6.25 mg/kg/injection, schedule: Q04DX003 (ip), vehicle: Klucel (hydroxypropylcellulose) (HPC) 103 % of control | dose: 12.5 mg/kg/injection, schedule: Q01DX009 (ip), vehicle: saline sonified 97 % of control | dose: 12.5 mg/kg/injection, schedule: Q04DX003 (ip), vehicle: Klucel (hydroxypropylcellulose) (HPC) 109 % of control | dose: 25.0 mg/kg/injection, schedule: Q01DX009 (ip), vehicle: saline sonified 90 % of control | dose: 25.0 mg/kg/injection, schedule: Q04DX003 (ip), vehicle: Klucel (hydroxypropylcellulose) (HPC) 117 % of control | dose: 200.0 mg/kg/injection, schedule: Q04DX003 (ip), vehicle: Klucel (hydroxypropylcellulose) (HPC) 86 % of control

O=[N+]([O-])c1cc(Br)cc(Br)c1S(=O)(=O)O
inactive: [8] 105 % of control | [9] 103 % of control | [10] 97 % of control | [11] 110 % of control | [12] 108 % of control | [13] 108 % of control

CCCCNC(=O)Nc1ccc(N(C)C)cc1
inactive: [1] 95 % of control | [2] 92 % of control | [14] 102 % of control | dose: 200.0 mg/kg/injection, schedule: Q01DX009 (ip), vehicle: saline with Tween-80 90 % of control | [15] 100 % of control | [16] 109 % of control

CCSc1nc2c([nH]1)c(=S)n(C)c(=O)n2C
inactive: [3] 96 % of control | [8] 100 % of control | [9] 109 % of control | [17] 112 % of control | [10] 89 % of control | [11] 98 % of control | dose: 400.0 mg/kg/injection, schedule: Q01DX001 (ip), vehicle: saline 95 % of control | [12] 103 % of control | [13] 98 % of control

CCOC(=O)/C=C(\C)N1CCCCC1
inactive: [8] 104 % of control | [10] 100 % of control

Cc1ccc(N=Cc2cc(Cl)cc(Cl)c2O)cc1.Cc1ccc(N=Cc2cc(Cl)cc(Cl)c2O)cc1.[Co]
inactive: [14] 104 % of control | [15] 100 % of control | [16] 114 % of control

C1=C(c2ccccc2)c2ccccc2CC1
inactive: dose: 50.0 mg/kg/injection, schedule: Q01DX001 (ip), vehicle: saline 96 % of control | [3] 102 % of control | [17] 106 % of control

C[N+](C)(CCCN1C(=O)c2cccc3c(Br)ccc(c23)C1=O)Cc1ccc(Cl)c(Cl)c1
inactive: dose: 100.0 mg/kg/injection, schedule: Q01DX001 (ip), vehicle: other 98 % of control | dose: 200.0 mg/kg/injection, schedule: Q01DX001 (ip), vehicle: other 96 % of control | dose: 400.0 mg/kg/injection, schedule: Q01DX001 (ip), vehicle: other 93 % of control

CCCCN1CCCC(OC(=O)N(C)C)C1 (stereo unspecified)
inactive: dose: 25.0 mg/kg/injection, schedule: Q04DX002 (ip), vehicle: saline 105 % of control | dose: 50.0 mg/kg/injection, schedule: Q04DX002 (ip), vehicle: saline 102 % of control | [6] 97 % of control

CC1(C)C2CCC1(C)C(N=C(N)CSS(=O)(=O)O)C2 (stereo unspecified)
inactive: dose: 12.5 mg/kg/injection, schedule: Q04DX002 (ip), vehicle: Klucel (hydroxypropylcellulose) (HPC) 112 % of control | dose: 25.0 mg/kg/injection, schedule: Q01DX001 (ip), vehicle: Klucel (hydroxypropylcellulose) (HPC) 101 % of control | dose: 25.0 mg/kg/injection, schedule: Q04DX002 (ip), vehicle: Klucel (hydroxypropylcellulose) (HPC) 98 % of control | [4] 98 % of control | [7] 87 % of control

CCOC(=O)N/N=C/c1ccc(N(C)CCC#N)cc1
inactive: dose: 100.0 mg/kg/injection, schedule: Q01DX001 (ip), vehicle: saline with Tween-80 100 % of control | dose: 100.0 mg/kg/injection, schedule: Q04DX002 (ip), vehicle: saline with Tween-80 95 % of control and 107 % of control | [14] 102 % of control | dose: 200.0 mg/kg/injection, schedule: Q01DX001 (ip), vehicle: saline with Tween-80 103 % of control | dose: 200.0 mg/kg/injection, schedule: Q04DX002 (ip), vehicle: saline with Tween-80 96 % of control and 104 % of control | [15] 93 % of control and 98 % of control | dose: 400.0 mg/kg/injection, schedule: Q04DX002 (ip), vehicle: saline with Tween-80 98 % of control and 107 % of control | [16] 94 % of control and 96 % of control
